# “Also recorded” adds a separate entry of the source.
# Experiments:
# [1] = target: T1, argininosuccinate synthase (AsS) (Mus musculus, UniProt P16460); test: Potentiation of argininosuccinate synthase activity (phosphate generated from ATP); format: biochemical
# T1 construct: Cytosolic and membrane fractions of the renal extract (100 mg/ml total protein) were applied to separate columns; from tissue; host or cells: Balb-c mouse kidney, cytosolic and membrane fractions
# T1 sequence (P16460 1-412): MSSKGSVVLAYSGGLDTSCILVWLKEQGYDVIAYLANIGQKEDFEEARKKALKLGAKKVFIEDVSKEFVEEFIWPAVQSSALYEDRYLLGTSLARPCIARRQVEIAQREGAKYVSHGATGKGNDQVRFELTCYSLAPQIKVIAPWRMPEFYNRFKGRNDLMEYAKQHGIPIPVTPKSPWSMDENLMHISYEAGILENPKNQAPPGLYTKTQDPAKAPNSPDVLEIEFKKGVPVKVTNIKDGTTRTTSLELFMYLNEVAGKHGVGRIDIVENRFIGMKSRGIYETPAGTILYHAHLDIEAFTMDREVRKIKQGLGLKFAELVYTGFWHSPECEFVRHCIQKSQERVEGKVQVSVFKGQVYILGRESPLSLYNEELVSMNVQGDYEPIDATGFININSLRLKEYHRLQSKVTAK
# Protocol: Activation of the AsS enzyme of Example 3 by peptide SEQ ID NO 8 was quantified in vitro according to Hao et al. [Hao G., Xie L., Gross S. S. Argininosuccinate synthetase is reversibly inactivated by S-nitrosylation in vitro and in vivo. J. Biol. Chem., 279:36192-36200 (2004)]. This method is based on measuring the quantity of phosphate generated from ATP, when pyrophosphatase is added to the reaction medium. Since the activity of the pyrophosphatase relates directly to the enzymatic activity of the AsS, the quantity of generated pyrophosphate is a direct measurement of the AsS activity.
# The AsS enzyme (1 μg) was added to the reaction mixture containing 20 mM Tris-HCl, pH 7.8, 2 mM ATP, 2 mM citrulline, 2 mM aspartate, 6 mM MgCl2, 20 mM KCl, and 0.2 units of pyrophosphatase in a final volume of 200 μL in 96 well microplates. Increasing quantities of the SEQ ID NO 8 peptide (0.5, 1 to 8 μM) were added, and samples were incubated at 37° C. for 60 minutes. The reaction was interrupted by the addition of 200 μL of ammonium molybdate buffer (10 mM ascorbic acid, 2.5 mM ammonium molybdate, 2% sulphuric acid). Resulting phosphate was determined in the samples by spectrophotometry (absorbance at 650 nm), using a standard curve obtained with inorganic phosphate.
# The production rate of phosphate (enzymatic activity of the AsS) was activated up to approximately 2.5 fold upon addition of 2 μM peptide SEQ ID NO 8. […] Accessibility of endothelial and inducible nitric oxide synthase to the intracellular citrulline-arginine regeneration pathway. Biochem. Pharmacol. 69: 97-104, 2005].
# [2] = Determination of Z-pro metabolites in mice urine; format: in vivo, mouse; conditions: mice; 0.91 mg/Kg intraperitoneally; urine collected after 24 hours; mass spectrometry; 0.91 mg/kg
# Protocol: In vivo hydrolysis of peptides SEQ ID NO 1, SEQ ID NO 4, SEQ ID NO 5, SEQ ID NO 8, and SEQ ID NO 15 was investigated in Swiss male mice weighing approximately 22-25 g, which had free access to food and water, and were kept under a light-dark cycle of 12 hour periods.
# Groups of 10 mice were treated intraperitoneally with 0.91 mg/Kg of each proline rich oligopeptide per animal, diluted in 200 μl saline. Treated and control animals (not treated) were kept in metabolic cages, and their urine was collected after 24 hours. The urine was pre-purified in a reverse phase Sep-Pak C18 micro column (Waters), which had been previously equilibrated with solvent A (H2O/0.1% TFA). Samples were eluted with 60% solvent B (90% acetonitrile/10% solvent A), lyophilized, and resuspended in 1 ml deionized water to be centrifuged at 14.000 rpm for 5 minutes. The supernatant (500 μl) was fractionated in an analytic HPLC system. The gradient was 5-65% solvent B for 30 minutes, using a flow rate of 1 ml/min and monitoring at 214 nm. Fractions were lyophilized and ressuspended in acetonitrile/H2O (1:1), containing 0.2% formic acid, and were analyzed by mass spectrometry (Q-TOF-Pro). Urine fractions from control and treated animals were compared to determine the presence of metabolites originated from the peptides being tested.
# [3] = system: total kidney protein extract; test: NO production in total kidney protein extract; format: biochemical, mouse; conditions: kidney homogenate of mice; 0.01 to 50 μmol, preferentially 0.5 to 2 μmol peptide
# Protocol: The release of NO was evaluated by means of nitrate and nitrit accumulation in total kidney protein extract of male Swiss mice weighing 30-35 g, as described by Wu and Yen (Wu C C and Yen M H. Higher level of plasma nitric oxide in spontaneously hypertensive rats. Am. J. Hypertension 12: 476-482, 1999). Animals were subjected to perfusion with 0.9% saline solution containing heparin (1:1000). Kidneys were collected and homogenized in cold 50 mM Tris-HCl, 0.1 mM EDTA, 0.1 mM EGTA, 12 mM β-mercaptoethanol, and 1 mM phenylmethylsulphonyl fluoride, pH 7.4 buffer in a homogenizer (Polytron PT MR 3000, Kinematic AG, Littau). Homogenates were incubated with 10 nM, 1 μM, or 10 μM peptide SEQ ID NO 8 in a final volume of 500 μl for 1 hour. Trichloracetic acid (1%) was added at 4° C., and after 20 minutes the mixture was centrifuged at 13.000 g for 7 min at 4° C. A saturated solution of vanadium chloride (VCl3) in 1 M HCl at 90° C. was added to the supernatant, and the concentration of NO was determined by gas chemiluminescence by means of the reaction of NO with ozone in a NO analyzer (NOA^TM280; Sievers Inc.). The concentration of nitrate was determined using a standard curve of NaNO3 and the Bag software 2.2 (Sievers Instruments Inc.).
substance,measurement,setting,value
<ENWPHPQIPP [SEQ ID NO 8],activation of the production rate of phosphate (enzymatic activity of the AsS),"[1]; 2 μM peptide, AsS 1-8 μg",approximately 2.5 fold
same,activation of AsS,[1]; maximum activation,70-80%
same,Metabolites in the urine,[2],<ENWPHPQIPP; also recorded: <ENWPHPQIP
same,increase of nitrite production (generated from NO),[3],5 fold

# Source: patent US20100035822A1, “PROLINE-RICH PEPTIDES, PHARMACEUTICAL COMPOSITION, USE OF ONE OR MORE PEPTIDES AND METHOD OF TREATMENT” (priority 2006, published 2010)
